Consider two molecules from publication PMC9410468 (Marine Drugs, 2022).

In assay [1] the test system is RAW264.7 cells. Type of assay: cell-based, mouse.
Assay [2] relates to RAW264.7 cells. Type of assay: cell-based, mouse. This is another data set of the same source.
Assay [3] has as its system rα6/α3β4 nAChR. In kind it is cell-based, rat.
The target in assay [4] is rα3β4 nAChR (Rattus norvegicus, UniProt P04757+P12392). In kind it is cell-based.
The test system of assay [5] is α3β4 nAChR. The settings on record: cited from earlier work.
For assay [6] the following is noted: in vivo; cited from earlier work.

rα3β4 nAChR, sequence (P04757 26-499 limits assumed): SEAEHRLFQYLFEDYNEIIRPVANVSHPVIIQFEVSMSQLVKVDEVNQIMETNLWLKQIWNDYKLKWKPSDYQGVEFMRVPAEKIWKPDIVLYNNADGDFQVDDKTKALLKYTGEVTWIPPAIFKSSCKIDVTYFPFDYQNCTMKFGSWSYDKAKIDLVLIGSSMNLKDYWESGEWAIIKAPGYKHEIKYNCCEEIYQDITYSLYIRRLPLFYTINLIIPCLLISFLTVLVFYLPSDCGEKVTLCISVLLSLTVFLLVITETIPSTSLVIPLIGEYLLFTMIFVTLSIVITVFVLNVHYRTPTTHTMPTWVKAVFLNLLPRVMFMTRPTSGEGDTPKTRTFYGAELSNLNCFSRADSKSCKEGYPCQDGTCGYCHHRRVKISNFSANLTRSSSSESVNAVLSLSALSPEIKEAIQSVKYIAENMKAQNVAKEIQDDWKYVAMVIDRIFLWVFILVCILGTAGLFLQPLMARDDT
rα3β4 nAChR, sequence (P12392 21-495 limits assumed): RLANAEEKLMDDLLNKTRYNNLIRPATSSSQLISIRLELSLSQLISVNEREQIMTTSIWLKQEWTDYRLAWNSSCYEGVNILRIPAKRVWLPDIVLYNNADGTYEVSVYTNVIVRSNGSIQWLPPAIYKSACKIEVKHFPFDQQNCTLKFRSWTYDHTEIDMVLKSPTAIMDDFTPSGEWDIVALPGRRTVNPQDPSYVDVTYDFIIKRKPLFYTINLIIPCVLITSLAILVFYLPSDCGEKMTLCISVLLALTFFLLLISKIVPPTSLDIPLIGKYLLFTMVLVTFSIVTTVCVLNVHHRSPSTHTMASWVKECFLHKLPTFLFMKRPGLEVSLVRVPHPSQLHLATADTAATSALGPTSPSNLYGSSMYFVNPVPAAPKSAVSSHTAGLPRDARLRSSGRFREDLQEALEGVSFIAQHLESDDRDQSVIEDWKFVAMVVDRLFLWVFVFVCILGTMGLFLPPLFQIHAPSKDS

As for `CC[C@H](C)[C@@H]1NC(=O)[C@@H]2CCCN2C(=O)[C@H](CO)NC(=O)[C@H](CCSC)NC(=O)[C@H](C)NC(=O)[C@H](CO)NC(=O)[C@@H]2CSSC[C@H](NC(=O)CNC(=O)c3ccc(-c4c5ccc(=[N+](C)C)cc-5oc5cc(N(C)C)ccc45)c(C(=O)[O-])c3)C(=O)N[C@@H](CSSC[C@@H](C(N)=O)NC1=O)C(=O)N[C@@H](CO)C(=O)N[C@@H](Cc1c[nH]cn1)C(=O)N1CCC[C@H]1C(=O)N[C@@H](C(C)C)C(=O)N2` [TxID-F], in assay [1], the “fluorescence intensity, flow cytometry (in words)” value was “strong fluorescence intensity”. The “red fluorescence labelling of cells (in words)” value in assay [2] is listed as “red fluorescence signal was observed on the RAW264.7 cells”. Moreover, in assay [3], the “inhibitory activity at rα6/α3β4 (in words)” value is reported as “followed with the rα6/α3β4 subtype”. In addition, in assay [4], the “Hill Slope” value is listed as 0.8 (0.7–0.9), the “change of IC50 compared with WT TxID” value turned out to be 3 fold, the “inhibitory activity at rα3β4 (in words)” value is listed as “most inhibitory activity” and the “potency at α3β4 compared with native TxID (in words)” value is “maintained the same order of potency”.

By IC50 is commonly meant the midpoint of a concentration-inhibition curve. With `CC[C@H](C)[C@@H]1NC(=O)[C@@H]2CCCN2C(=O)[C@H](CO)NC(=O)[C@H](CCSC)NC(=O)[C@H](C)NC(=O)[C@H](CO)NC(=O)[C@@H]2CSSC[C@H](NC(=O)CN)C(=O)N[C@@H](CSSC[C@@H](C(N)=O)NC1=O)C(=O)N[C@@H](CO)C(=O)N[C@@H](Cc1c[nH]cn1)C(=O)N1CCC[C@H]1C(=O)N[C@@H](C(C)C)C(=O)N2` [TxID], the IC50 in assay [5] is […]. Moreover, the “anti-nicotine addiction effect (in words)” value in assay [6] is listed as “anti-nicotine addiction effect”. For the same molecule, in assay [4], the “Hill Slope” value is 0.6 (0.5–0.7).
